Source: ChEMBL document CHEMBL1201862, “PubChem BioAssay data set” (2004)
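In this assay, cells in 96-well plates receive the compound at five concentrations for 48 hours. Endpoints are linearly interpolated between the surrounding concentrations. GI50: concentration for 50% inhibition of growth.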 Activity calls are given as the source filed them. Rule as the data show it: active = GI50 up to about 1.1 µM and inactive = higher.

Assays:
Assay in all cases: DTP human tumour cell line panel, 48 h
NCI-H460 = test system: NCI-H460
CAKI-1 = test system: CAKI-1
SR = test system: SR
HCT-15 = test system: HCT-15
SN12C = test system: SN12C
EKVX = test system: EKVX
786-0 = test system: 786-0
ACHN = test system: ACHN
NCI-H226 = test system: NCI-H226
RPMI-8226 = test system: RPMI-8226
UO-31 = test system: UO-31
NCI-H522 = test system: NCI-H522
A549 = test system: A549
K562 = test system: K562
SF-539 = test system: SF-539
HOP-92 = test system: HOP-92

Row | SMILES | GI50 (NCI-H460) | GI50 (CAKI-1) | GI50 (SR) | GI50 (HCT-15) [µM] | GI50 (SN12C) | GI50 (EKVX) | GI50 (786-0) | GI50 (ACHN) | GI50 (NCI-H226) | GI50 (RPMI-8226) | GI50 (UO-31) | GI50 (NCI-H522) | GI50 (A549) | GI50 (K562) | GI50 (SF-539) | GI50 (HOP-92)
1 | COc1ccc(C2C(Cl)C(=O)N2NC(=O)Cc2ccccc2)cc1 (configuration not stated) | > 100 µM (inactive) | > 100 µM (inactive) | > 100 µM (inactive) | > 100 | > 100 µM (inactive) | > 100 µM (inactive) | > 100 µM (inactive) | > 100 µM (inactive) | > 100 µM (inactive) | > 100 µM (inactive) | > 100 µM (inactive) | > 100 µM (inactive) | > 100 µM (inactive) | > 100 µM (inactive) |  | 
2 | O=C(COc1ccc(Cl)cc1)N1N=C(c2ccc(Cl)cc2)CC1(O)c1ccccc1 (configuration not stated) | 15.2 µM (inactive) | 20.9 µM (inactive) | 3.69 µM (inactive) | 13.1 | 5 µM (inactive) | 30 µM (inactive) | 14.5 µM (inactive) | 9.04 µM (inactive) | 22.3 µM (inactive) | 7.03 µM (inactive) | > 23.7 µM (inactive) | 14.3 µM (inactive) | 14.3 µM (inactive) | 9.73 µM (inactive) | 24.8 µM (inactive) | 21.5 µM (inactive)
3 | O=C1C2=C(c3ccccc31)C(c1cccc(Cl)c1)NC(S)=N2 (configuration not stated) | > 100 µM (inactive) | 75.2 µM (inactive) |  | > 100 | > 100 µM (inactive) | > 100 µM (inactive) | > 100 µM (inactive) | 68.1 µM (inactive) | 44.2 µM (inactive) | 88.5 µM (inactive) | 46.2 µM (inactive) | > 100 µM (inactive) | > 100 µM (inactive) | > 100 µM (inactive) | > 100 µM (inactive) | > 100 µM (inactive)
4 | C[P+](C)(C)C | > 100 µM (inactive) | > 100 µM (inactive) | > 100 µM (inactive) | > 100 | > 100 µM (inactive) | > 100 µM (inactive) | > 100 µM (inactive) | > 100 µM (inactive) | > 100 µM (inactive) | > 100 µM (inactive) | > 100 µM (inactive) |  | > 100 µM (inactive) | > 100 µM (inactive) | > 100 µM (inactive) | > 100 µM (inactive)
5 | CCOc1ccc(/N=N/c2c(-c3ccccc3)nn(C(=O)CC(=O)Nc3cccc(C)c3)c2-c2ccccc2)cc1 | > 100 µM (inactive) | > 100 µM (inactive) | > 100 µM (inactive) |  | > 100 µM (inactive) | 38.1 µM (inactive) | > 100 µM (inactive) | 38.5 µM (inactive) | 96.4 µM (inactive) | 65.8 µM (inactive) | 17.7 µM (inactive) | > 100 µM (inactive) | > 100 µM (inactive) | 38.8 µM (inactive) | 76.2 µM (inactive) | > 100 µM (inactive)
6 | CCCCCCCCCCCCCC(=O)OCC1OC(=O)C(O)C1O (configuration not stated) |  | > 100 µM (inactive) | > 100 µM (inactive) |  | > 100 µM (inactive) | > 100 µM (inactive) | > 100 µM (inactive) | > 100 µM (inactive) | > 100 µM (inactive) | > 100 µM (inactive) | > 100 µM (inactive) | > 100 µM (inactive) | > 100 µM (inactive) | 73.8 µM (inactive) | > 100 µM (inactive) | > 100 µM (inactive)
7 | O=C1C=CC(=O)N1Nc1ccc([N+](=O)[O-])cc1[N+](=O)[O-] | > 100 µM (inactive) | > 47.9 µM (inactive) | > 38.5 µM (inactive) | > 74.1 | > 100 µM (inactive) | > 100 µM (inactive) | > 70.1 µM (inactive) | > 100 µM (inactive) | 97.1 µM (inactive) | > 44.5 µM (inactive) | > 100 µM (inactive) | > 42.7 µM (inactive) | > 100 µM (inactive) | > 42.4 µM (inactive) | > 100 µM (inactive) | > 49.1 µM (inactive)
8 | Clc1ccc2c(c1)[nH]c1c2nc2sccn21 | > 100 µM (inactive) | > 100 µM (inactive) | > 100 µM (inactive) | > 100 | > 100 µM (inactive) | > 100 µM (inactive) | > 100 µM (inactive) | > 100 µM (inactive) | > 100 µM (inactive) | > 100 µM (inactive) | > 100 µM (inactive) | > 100 µM (inactive) | > 100 µM (inactive) | > 100 µM (inactive) | > 100 µM (inactive) | > 100 µM (inactive)
9 | CC(C)N(C(=O)C1(C)CC1)C(C)C |  | > 100 µM (inactive) |  | > 100 | > 100 µM (inactive) | > 100 µM (inactive) | > 100 µM (inactive) | > 100 µM (inactive) | > 100 µM (inactive) | > 100 µM (inactive) | > 100 µM (inactive) | > 100 µM (inactive) | > 100 µM (inactive) | > 100 µM (inactive) | > 100 µM (inactive) | > 100 µM (inactive)
10 | NC(=S)N/N=C(/CC(=O)c1ccc([N+](=O)[O-])cc1)C(=O)Nc1ncc([N+](=O)[O-])s1 | > 100 µM (inactive) |  |  |  | > 100 µM (inactive) | > 100 µM (inactive) | > 100 µM (inactive) | > 100 µM (inactive) | > 100 µM (inactive) | > 100 µM (inactive) | > 100 µM (inactive) |  | > 100 µM (inactive) |  |  | > 100 µM (inactive)
11 | O=C(O)c1cc(=O)c2c([nH]c3ccccc32)s1 | > 100 µM (inactive) | > 100 µM (inactive) |  | > 100 | > 100 µM (inactive) | > 100 µM (inactive) | > 100 µM (inactive) | > 100 µM (inactive) |  | > 100 µM (inactive) | > 100 µM (inactive) | > 100 µM (inactive) | > 100 µM (inactive) | > 100 µM (inactive) |  | > 100 µM (inactive)
12 | CC(=O)C1C(=O)NC(=O)C1=O (configuration not stated) | > 100 µM (inactive) | > 100 µM (inactive) |  | > 100 | > 100 µM (inactive) | > 100 µM (inactive) | > 100 µM (inactive) | > 100 µM (inactive) | > 100 µM (inactive) | > 100 µM (inactive) | > 100 µM (inactive) | > 100 µM (inactive) |  | > 100 µM (inactive) | > 100 µM (inactive) | > 100 µM (inactive)
13 | COC(=O)CC(=O)NCC1=CCC(=O)CC1 | > 100 µM (inactive) | > 100 µM (inactive) |  | > 100 | > 100 µM (inactive) | > 100 µM (inactive) | > 100 µM (inactive) |  |  | > 100 µM (inactive) | > 100 µM (inactive) | > 100 µM (inactive) | > 100 µM (inactive) | > 100 µM (inactive) | > 100 µM (inactive) | > 100 µM (inactive)
14 | Cn1c2c(c3ccccc31)C1C(=O)N(c3ccccc3)C(=O)C1CC2 (configuration not stated) | > 303 µM (inactive) | > 303 µM (inactive) | > 303 µM (inactive) | > 303 | > 303 µM (inactive) | > 303 µM (inactive) | > 303 µM (inactive) | > 303 µM (inactive) | 85.5 µM (inactive) | > 303 µM (inactive) |  | 243 µM (inactive) | > 303 µM (inactive) | > 303 µM (inactive) | > 303 µM (inactive) | > 303 µM (inactive)
15 | COc1ccc(CCCN2c3ccccc3Sc3ccccc32)cc1 | 99.5 µM (inactive) | > 100 µM (inactive) |  | 27.9 | > 100 µM (inactive) | > 100 µM (inactive) | 35.1 µM (inactive) | > 100 µM (inactive) | > 100 µM (inactive) | 32.3 µM (inactive) | > 100 µM (inactive) | 33.1 µM (inactive) | > 100 µM (inactive) | 17.3 µM (inactive) | > 100 µM (inactive) | > 100 µM (inactive)
16 | COc1cc2c3c(c1OC)-c1c(ccc4c1OCO4)CC3(C#N)N(C(=O)c1ccccc1)CC2 (configuration not stated) | 98.9 µM (inactive) | 36.6 µM (inactive) | > 100 µM (inactive) | 39.7 | 51.2 µM (inactive) | 74.1 µM (inactive) | 30.7 µM (inactive) |  | 37.7 µM (inactive) | 8.91 µM (inactive) | 99.8 µM (inactive) | > 100 µM (inactive) | 64.3 µM (inactive) | 54.6 µM (inactive) | 28.1 µM (inactive) | 26.4 µM (inactive)
17 | C[P+]1(Cc2ccccc2)CCCC1 | > 100 µM (inactive) |  | > 100 µM (inactive) | > 100 | > 100 µM (inactive) | > 100 µM (inactive) | > 100 µM (inactive) | > 100 µM (inactive) | > 100 µM (inactive) | > 100 µM (inactive) | > 100 µM (inactive) | > 100 µM (inactive) | > 100 µM (inactive) | > 100 µM (inactive) | > 100 µM (inactive) | 
18 | CC1=C(C(=O)Nc2ccc([N+](=O)[O-])cc2)C(c2ccco2)C(C(=O)Nc2ccc([N+](=O)[O-])cc2)=C(C)N1 | 20.1 µM (inactive) | 20.3 µM (inactive) |  |  | 16.3 µM (inactive) | 3.63 µM (inactive) | 31.8 µM (inactive) | 4.4 µM (inactive) | 19.1 µM (inactive) | 2.9 µM (inactive) | 7.24 µM (inactive) | 12.4 µM (inactive) | 18.1 µM (inactive) | 6.37 µM (inactive) | 16.5 µM (inactive) | 14.8 µM (inactive)
19 | O=C(/C=C/c1cccc([N+](=O)[O-])c1)c1ccc([N+](=O)[O-])cc1 | > 100 µM (inactive) | > 100 µM (inactive) | > 100 µM (inactive) | > 100 | > 100 µM (inactive) | > 100 µM (inactive) | > 100 µM (inactive) | > 100 µM (inactive) | > 100 µM (inactive) |  | > 100 µM (inactive) | > 100 µM (inactive) | > 100 µM (inactive) | > 100 µM (inactive) | > 100 µM (inactive) | 
